Where a name gives a salt, the structure may show the parent alone.
Legend:
[1] = biological target: T1, HiBit-BRG1 fusion protein (Homo sapiens, UniProt P51532); experiment: HiBiT-BRG1 cell-based degradation assay (Nano-Glo HiBiT Lytic Detection, 24 h); details: HeLa cells expressing HiBit-BRG1 and LgBit; for DC50: read-out: BRG1 HiBit Degradation IC50; for Dmax: HeLa, top dose 30 μM, read-out: BRG1 HiBit Degradation Maximum measured
T1 construct: expressed in transfected cells
How it was run: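 Degradation is scaled from DMSO-treated cells (0%) to cells given 2 μM of a known BRM/BRG1 degrader (100%). HeLa cells stably carrying HiBiT-BRG1 plus LgBiT (5000/well) were lysed with Nano-Glo HiBiT detection reagent, shaken 10 min at RT, and luminescence read.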

[2] = biological target: T2, HiBit-BRM fusion protein (Homo sapiens, UniProt P51531); experiment: HiBiT-BRM cell-based degradation assay (Nano-Glo HiBiT Lytic Detection, 24 h); details: HeLa cells expressing HiBiT-BRM; for DC50: read-out: BRM HiBit Degradation IC50; for BRM HiBit Degradation Maximum measured: top dose 30 μM
T2 construct: expressed in transfected cells
T2 sequence (P51531 whole entry, the tested form may be a part): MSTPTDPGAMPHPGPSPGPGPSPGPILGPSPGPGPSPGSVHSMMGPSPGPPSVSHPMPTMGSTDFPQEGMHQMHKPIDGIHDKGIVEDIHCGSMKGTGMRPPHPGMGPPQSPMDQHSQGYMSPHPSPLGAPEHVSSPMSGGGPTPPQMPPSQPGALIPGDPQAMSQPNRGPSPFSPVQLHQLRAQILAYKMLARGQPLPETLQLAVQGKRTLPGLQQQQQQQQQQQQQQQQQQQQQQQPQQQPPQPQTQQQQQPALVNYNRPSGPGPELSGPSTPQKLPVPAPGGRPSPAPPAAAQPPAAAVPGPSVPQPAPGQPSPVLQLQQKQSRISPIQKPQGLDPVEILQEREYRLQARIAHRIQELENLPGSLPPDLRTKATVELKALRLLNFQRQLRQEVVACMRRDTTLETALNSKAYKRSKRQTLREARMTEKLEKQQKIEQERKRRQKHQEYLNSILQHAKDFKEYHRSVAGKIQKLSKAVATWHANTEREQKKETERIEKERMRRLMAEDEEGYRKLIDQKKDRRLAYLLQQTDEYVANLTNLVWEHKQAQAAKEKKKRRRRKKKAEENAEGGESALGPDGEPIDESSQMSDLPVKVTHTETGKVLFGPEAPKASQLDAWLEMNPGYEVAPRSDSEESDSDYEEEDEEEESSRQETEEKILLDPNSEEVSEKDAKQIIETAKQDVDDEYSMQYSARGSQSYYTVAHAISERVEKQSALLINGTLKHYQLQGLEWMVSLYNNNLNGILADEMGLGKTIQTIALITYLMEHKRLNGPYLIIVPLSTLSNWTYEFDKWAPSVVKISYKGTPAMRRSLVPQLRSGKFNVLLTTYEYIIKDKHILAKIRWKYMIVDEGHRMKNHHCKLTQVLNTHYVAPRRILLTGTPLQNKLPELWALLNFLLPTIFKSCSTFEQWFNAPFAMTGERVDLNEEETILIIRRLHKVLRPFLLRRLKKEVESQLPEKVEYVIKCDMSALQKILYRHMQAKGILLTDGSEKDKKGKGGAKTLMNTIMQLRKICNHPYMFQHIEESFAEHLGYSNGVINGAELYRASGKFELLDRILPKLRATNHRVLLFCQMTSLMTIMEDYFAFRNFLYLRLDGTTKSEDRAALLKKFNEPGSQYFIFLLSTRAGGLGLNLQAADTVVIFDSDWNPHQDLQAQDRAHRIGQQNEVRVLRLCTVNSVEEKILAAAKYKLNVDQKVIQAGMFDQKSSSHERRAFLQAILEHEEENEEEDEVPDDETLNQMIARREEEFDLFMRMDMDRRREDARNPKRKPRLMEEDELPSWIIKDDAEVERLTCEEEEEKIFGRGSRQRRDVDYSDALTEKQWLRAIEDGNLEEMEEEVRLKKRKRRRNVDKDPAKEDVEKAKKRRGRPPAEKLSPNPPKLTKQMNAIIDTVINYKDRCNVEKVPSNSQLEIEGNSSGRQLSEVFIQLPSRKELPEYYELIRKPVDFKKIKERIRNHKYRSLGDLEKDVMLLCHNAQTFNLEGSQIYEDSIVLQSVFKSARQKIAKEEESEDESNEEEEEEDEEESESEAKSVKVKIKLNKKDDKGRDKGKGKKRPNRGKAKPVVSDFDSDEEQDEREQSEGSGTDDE
How it was run: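 Percent BRM loss was derived from HiBiT luminescence relative to DMSO-treated cells and cells given 2 μM of a known BRM/BRG1 degrader. Treatment lasted 24 h in HiBiT-BRM HeLa cells, with a top final concentration of 30 μM.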

T1 sequence (P51532 whole entry, the tested form may be a part): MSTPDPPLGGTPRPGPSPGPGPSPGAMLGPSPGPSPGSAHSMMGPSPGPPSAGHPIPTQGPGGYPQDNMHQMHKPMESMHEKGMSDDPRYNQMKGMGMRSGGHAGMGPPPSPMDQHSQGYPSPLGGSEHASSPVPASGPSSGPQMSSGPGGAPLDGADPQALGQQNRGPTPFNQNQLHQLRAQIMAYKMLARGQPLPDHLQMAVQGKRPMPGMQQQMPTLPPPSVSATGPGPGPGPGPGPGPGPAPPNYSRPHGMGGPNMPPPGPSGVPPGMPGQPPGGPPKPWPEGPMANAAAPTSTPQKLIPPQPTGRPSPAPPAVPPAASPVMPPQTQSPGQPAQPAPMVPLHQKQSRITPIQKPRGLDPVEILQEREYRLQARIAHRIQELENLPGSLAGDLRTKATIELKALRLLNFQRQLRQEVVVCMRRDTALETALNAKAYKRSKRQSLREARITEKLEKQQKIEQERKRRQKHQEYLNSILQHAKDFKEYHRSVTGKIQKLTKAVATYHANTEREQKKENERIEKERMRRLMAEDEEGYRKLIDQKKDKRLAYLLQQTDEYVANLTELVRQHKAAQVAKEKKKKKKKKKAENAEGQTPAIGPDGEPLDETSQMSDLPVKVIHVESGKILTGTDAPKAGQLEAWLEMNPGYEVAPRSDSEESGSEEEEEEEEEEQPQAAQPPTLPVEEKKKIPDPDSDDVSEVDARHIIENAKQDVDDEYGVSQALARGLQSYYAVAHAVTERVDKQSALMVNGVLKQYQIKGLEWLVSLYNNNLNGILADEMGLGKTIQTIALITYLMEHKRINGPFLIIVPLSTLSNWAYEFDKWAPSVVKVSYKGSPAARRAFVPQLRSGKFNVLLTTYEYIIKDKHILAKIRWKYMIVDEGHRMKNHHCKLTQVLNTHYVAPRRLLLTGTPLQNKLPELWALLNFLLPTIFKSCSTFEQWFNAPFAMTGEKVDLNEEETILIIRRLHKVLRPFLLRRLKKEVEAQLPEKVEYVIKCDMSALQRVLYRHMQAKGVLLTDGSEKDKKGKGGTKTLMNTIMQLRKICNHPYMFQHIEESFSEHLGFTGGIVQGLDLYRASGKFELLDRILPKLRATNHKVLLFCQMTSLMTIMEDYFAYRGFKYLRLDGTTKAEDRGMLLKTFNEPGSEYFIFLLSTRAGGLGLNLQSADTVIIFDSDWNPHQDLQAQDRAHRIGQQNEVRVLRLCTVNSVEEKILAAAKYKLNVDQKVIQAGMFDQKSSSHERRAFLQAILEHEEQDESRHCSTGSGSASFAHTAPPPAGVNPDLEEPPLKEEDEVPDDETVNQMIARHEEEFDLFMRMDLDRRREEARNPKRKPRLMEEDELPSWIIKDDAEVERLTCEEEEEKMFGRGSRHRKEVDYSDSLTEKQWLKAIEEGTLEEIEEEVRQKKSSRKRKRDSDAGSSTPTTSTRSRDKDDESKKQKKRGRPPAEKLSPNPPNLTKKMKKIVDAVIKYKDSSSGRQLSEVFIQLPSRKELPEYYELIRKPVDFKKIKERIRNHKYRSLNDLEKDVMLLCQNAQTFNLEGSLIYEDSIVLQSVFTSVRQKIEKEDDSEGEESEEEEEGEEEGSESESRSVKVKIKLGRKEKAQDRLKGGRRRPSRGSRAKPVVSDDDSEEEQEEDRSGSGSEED

## CS(=O)(=O)n1ccc(C(=O)N[C@@H](COCc2ccc(CNC(=O)CCCCOc3cccc4c3C(=O)N(C3CCC(=O)NC3=O)C4=O)cc2)C(=O)Nc2nc(-c3ccccc3)cs2)c1 (stereo partly drawn) [Compound 212, 5-[[2-(2,6-dioxopiperidin-3-yl)-1,3-dioxoisoindol-4-yl]oxy]-N-[(4-[[(2S)-2-[(1-methanesulfonylpyrrol-3-yl)formamido]-2-[(4-phenyl-1,3-thiazol-2-yl)carbamoyl]ethoxy]methyl]phenyl)methyl]pentanamide]
[1]
  DC50: > 10 µM
  Dmax: < 50%
[2]
  DC50: > 10 µM
  BRM HiBit Degradation Maximum measured: C (‘C’ = Maximum degradation <50%)

## Cc1ncsc1-c1ccc(CNC(=O)[C@@H]2C[C@@H](O)CN2C(=O)[C@@H](NC(=O)CCCCCCC(=O)NCCCC[C@H](NC(=O)c2ccn(S(C)(=O)=O)c2)C(=O)Nc2nc(-c3ccccc3)cs2)C(C)(C)C)cc1 [Compound 266, N′-[(2S)-1-[(2S,4R)-4-hydroxy-2-([[4-(4-methyl-1,3-thiazol-5-yl)phenyl]methyl]carbamoyl)pyrrolidin-1-yl]-3,3-dimethyl-1-oxobutan-2-yl]-N-[(5S)-5-[(1-methanesulfonylpyrrol-3-yl)formamido]-5-[(4-phenyl-1,3-thiazol-2-yl)carbamoyl]pentyl]octanediamide]
[1]
  DC50: > 10 µM
  Dmax: < 50%
[2]
  DC50: > 10 µM
  BRM HiBit Degradation Maximum measured: C (‘C’ = Maximum degradation <50%)

## CS(=O)(=O)n1ccc(C(=O)N[C@@H](COCc2ccc(CNC(=O)CCOCCOCCOc3ccc4c(c3)C(=O)N(C3CCC(=O)NC3=O)C4=O)cc2)C(=O)Nc2nc(-c3ccccc3)cs2)c1 (stereo partly drawn) [Compound 217, 3-[2-(2-[[2-(2,6-dioxopiperidin-3-yl)-1,3-dioxoisoindol-5-yl]oxy]ethoxy)ethoxy]-N-[(4-[[(2S)-2-[(1-methanesulfonylpyrrol-3-yl)formamido]-2-[(4-phenyl-1,3-thiazol-2-yl)carbamoyl]ethoxy]methyl]phenyl)methyl]propanamide]
[1]
  DC50: 0.1 to 1 µM
  Dmax: 50 to 75%
[2]
  DC50: 0.1 to 1 µM
  BRM HiBit Degradation Maximum measured: B (‘B’ = Maximum degradation ≥50% and ≤75%)

## CS(=O)(=O)n1ccc(C(=O)N[C@@H](COCc2ccc(C(=O)NCCCCNc3ccc4c(c3)C(=O)N(C3CCC(=O)NC3=O)C4=O)cc2)C(=O)Nc2nc(-c3ccccc3)cs2)c1 (some centres unmarked) [Compound 242]
[1]
  DC50: 0.1 to 1 µM
  Dmax: 50 to 75%
[2]
  DC50: 0.1 to 1 µM
  BRM HiBit Degradation Maximum measured: B (‘B’ = Maximum degradation ≥50% and ≤75%)

## Cc1ncsc1-c1ccc(CNC(=O)[C@@H]2C[C@@H](O)CN2C(=O)[C@@H](NC(=O)CCCCCCCCCNC(=O)C2(c3cc(-c4cccc(-c5csc(NC(=O)CNC(=O)c6ccn(S(C)(=O)=O)c6)n5)c4)ccn3)CC2)C(C)(C)C)cc1 [Compound 98, N-(2-((4-(3-(2-(1-((10-(((S)-1-((2S,4R)-4-hydroxy-2-((4-(4-methylthiazol-5-yl)benzyl)carbamoyl)pyrrolidin-1-yl)-3,3-dimethyl-1-oxobutan-2-yl)amino)-10-oxodecyl)carbamoyl)cyclopropyl)-pyridin-4-yl)phenyl)thiazol-2-yl)amino)-2-oxoethyl)-1-(methylsulfonyl)-1H-pyrrole-3-carboxamide]
[1]
  DC50: < 0.1 µM
  Dmax: > 75%
[2]
  DC50: < 0.1 µM
  BRM HiBit Degradation Maximum measured: A (‘A’ = Maximum degradation >75%)

## Cc1ncsc1-c1ccc(CNC(=O)[C@@H]2C[C@@H](O)CN2C(=O)[C@@H](NC(=O)CCCCCCCCCCC(=O)NCc2ccc(COC[C@H](NC(=O)c3ccn(S(C)(=O)=O)c3)C(=O)Nc3nc(-c4ccccc4)cs3)cc2)C(C)(C)C)cc1 [Compound 209, N-[(2S)-1-[(2S,4R)-4-hydroxy-2-([[4-(4-methyl-1,3-thiazol-5-yl)phenyl]methyl]carbamoyl)pyrrolidin-1-yl]-3,3-dimethyl-1-oxobutan-2-yl]-N′-[(4-[[(2S)-2-[(1-methanesulfonylpyrrol-3-yl)formamido]-2-[(4-phenyl-1,3-thiazol-2-yl)carbamoyl]ethoxy]methyl]phenyl)methyl]dodecanediamide]
[1]
  DC50: > 10 µM
  Dmax: < 50%
[2]
  DC50: > 10 µM
  BRM HiBit Degradation Maximum measured: C (‘C’ = Maximum degradation <50%)

## CS(=O)(=O)n1ccc(C(=O)NCC(=O)Nc2nc(-c3cccc(-c4ccnc(N5CCN(c6ccc7c(c6)C(=O)N(C6CCC(=O)NC6=O)C7=O)CC5)c4)c3)cs2)c1 (centres unmarked) [Compound 165, N-[4-[3-(2-[4-[2-(2,6-dioxopiperidin-3-yl)-1,3-dioxoisoindol-5-yl]piperazin-1-yl]pyridin-4-yl)phenyl]-1,3-thiazol-2-yl]-2-[(1-methanesulfonylpyrrol-3-yl)formamido]acetamide trifluoroacetate]
[1]
  DC50: > 10 µM
  Dmax: < 50%
[2]
  DC50: > 10 µM
  BRM HiBit Degradation Maximum measured: C (‘C’ = Maximum degradation <50%)

## CN(CCCCNC(=O)C1(c2cc(-c3cccc(-c4csc(NC(=O)CNC(=O)c5ccn(S(C)(=O)=O)c5)n4)c3)ccn2)CC1)CCCNc1cccc2c1C(=O)N(C1CCC(=O)NC1=O)C2=O (centres unmarked) [Compound 106, N-(2-((4-(3-(2-(1-((4-((3-((2-(2,6-dioxopiperidin-3-yl)-1,3-dioxoisoindolin-4-yl)amino)propyl)(methyl)amino)butyl)-carbamoyl)cyclopropyl)pyridin-4-yl)phenyl)thiazol-2-yl)amino)-2-oxoethyl)-1-(methylsulfonyl)-1H-pyrrole-3-carboxamide]
[1]
  DC50: > 10 µM
  Dmax: < 50%
[2]
  DC50: > 10 µM
  BRM HiBit Degradation Maximum measured: C (‘C’ = Maximum degradation <50%)

## CS(=O)(=O)n1ccc(C(=O)N[C@@H](COCc2ccc(C(=O)N3CC(COc4cccc5c4C(=O)N(C4CCC(=O)NC4=O)C5=O)C3)cc2)C(=O)Nc2nc(-c3ccccc3)cs2)c1 (stereo partly drawn) [Compound 197, (2S)-3-([4-[3-([[2-(2,6-dioxopiperidin-3-yl)-1,3-dioxoisoindol-4-yl]oxy]methyl)azetidine-1-carbonyl]phenyl]methoxy)-2-[(1-methanesulfonylpyrrol-3-yl)formamido]-N-(4-phenyl-1,3-thiazol-2-yl)propanamide]
[1]
  DC50: > 10 µM
  Dmax: < 50%
[2]
  DC50: > 10 µM
  BRM HiBit Degradation Maximum measured: C (‘C’ = Maximum degradation <50%)

## CN(CCNC(=O)COc1cccc2c1C(=O)N(C1CCC(=O)NC1=O)C2=O)CCNC(=O)c1ccc(COC[C@H](NC(=O)c2ccn(S(C)(=O)=O)c2)C(=O)Nc2nc(-c3ccccc3)cs2)cc1 (some centres unmarked) [Compound 175]
[1]
  DC50: > 10 µM
  Dmax: < 50%
[2]
  DC50: > 10 µM
  BRM HiBit Degradation Maximum measured: C (‘C’ = Maximum degradation <50%)

## Cc1cc(C(=O)NCC(=O)Nc2nc(-c3cccc(-c4ccnc(N(C)CC(=O)NCCOCCOCCNc5cccc6c5C(=O)N(C5CCC(=O)NC5=O)C6=O)c4)c3)cs2)cn1S(C)(=O)=O (centres unmarked) [Compound 122, N-(2-((4-(3-(2-((2-((2-(2-(2-((2-(2,6-dioxopiperidin-3-yl)-1,3-dioxoisoindolin-4-yl)amino)ethoxy)ethoxy)ethyl)amino)-2-oxoethyl)(methyl)amino)pyridin-4-yl)phenyl)thiazol-2-yl)amino)-2-oxoethyl)-5-methyl-1-(methylsulfonyl)-1H-pyrrole-3-carboxamide]
[1]
  DC50: > 10 µM
  Dmax: < 50%
[2]
  DC50: > 10 µM
  BRM HiBit Degradation Maximum measured: C (‘C’ = Maximum degradation <50%)

## CS(=O)(=O)n1ccc(C(=O)N[C@@H](COCc2ccc(C(=O)NCCCC#Cc3cccc4c3C(=O)N(C3CCC(=O)NC3=O)C4=O)cc2)C(=O)Nc2nc(-c3ccccc3)cs2)c1 (stereo partly drawn) [Compound 205, N-[5-[2-(2,6-dioxopiperidin-3-yl)-1,3-dioxoisoindol-4-yl]pent-4-yn-1-yl]-4-[[(2S)-2-[(1-methanesulfonylpyrrol-3-yl)formamido]-2-[(4-phenyl-1,3-thiazol-2-yl)carbamoyl]ethoxy]methyl]benzamide]
[1]
  DC50: > 10 µM
  Dmax: < 50%
[2]
  DC50: > 10 µM
  BRM HiBit Degradation Maximum measured: C (‘C’ = Maximum degradation <50%)

## CS(=O)(=O)n1ccc(C(=O)NCC(=O)Nc2nc(-c3cccc(-c4ccnc(C5(C(=O)N6CCN(c7ccc8c(c7)C(=O)N(C7CCC(=O)NC7=O)C8=O)CC6)CC5)c4)c3)cs2)c1 (centres unmarked) [Compound 132, N-(4-[3-[2-(1-[4-[2-(2,6-dioxopiperidin-3-yl)-1,3-dioxoisoindol-5-yl]piperazine-1-carbonyl]cyclopropyl)pyridin-4-yl]phenyl]-1,3-thiazol-2-yl)-2-[(1-methanesulfonylpyrrol-3-yl)formamido]acetamide]
[1]
  DC50: > 10 µM
  Dmax: < 50%
[2]
  DC50: > 10 µM
  BRM HiBit Degradation Maximum measured: C (‘C’ = Maximum degradation <50%)

## CN(CCNC(=O)C1(c2cc(-c3cccc(-c4csc(NC(=O)CNC(=O)c5ccn(S(C)(=O)=O)c5)n4)c3)ccn2)CC1)CCNc1cccc2c1C(=O)N(C1CCC(=O)NC1=O)C2=O (centres unmarked) [Compound 97, N-[2-[[4-[3-[2-[1-[2-[2-[[2-(2,6-dioxo-3-piperidyl)-1,3-dioxoisoindolin-4-yl]amino]ethyl-methyl-amino]ethylcarbamoyl]cyclopropyl]-4-pyridyl]phenyl]thiazol-2-yl]amino]-2-oxo-ethyl]-1-methylsulfonyl-pyrrole-3-carboxamide]
[1]
  DC50: > 10 µM
  Dmax: < 50%
[2]
  DC50: > 10 µM
  BRM HiBit Degradation Maximum measured: C (‘C’ = Maximum degradation <50%)
